Marks after values point to notes of the source that are not given here.
How the values were obtained:
[1] = system: peripheral blood cells; test: s.c. dose finding study, hematological analysis of peripheral blood; conditions: 3 hours, mean ± SEM
[2] = system: peripheral blood cells; test: time-effect relationship, hematological analysis; conditions: 100 mg/kg i.v.; for Lymph / PLT / WBC: mean±SEM
Description: Peripheral blood was sampled by terminal heart puncture under isoflurane-anesthesia using EDTA-flushed syringes and transferred to polypropylene tubes containing 1.6 mg EDTA (Sarstedt, Landskrona, Sweden).

dextran sulfate [LMW-DS]
Lymphocytes ([1]; LMW-DS (pKC) 50 mg/kg s.c.): 7.3 ± 0.6**/f 10^9 cells/L | MCHC ([1]; LMW-DS (pKC) 50 mg/kg s.c.): 324.3 ± 1.41 g/L | MCV ([1]; LMW-DS (pKC) 50 mg/kg s.c.): 42.6 ± 0.3 fL | MPV ([1]; LMW-DS (pKC) 50 mg/kg s.c.): 7.9 ± 0.1 | Monocytes ([1]; LMW-DS (pKC) 50 mg/kg s.c.): 0.3 ± 0.1 10^9 cells/L | Neutrophils ([1]; LMW-DS (pKC) 50 mg/kg s.c.): 1.5 ± 0.2 10^9 cells/L | Platelets ([1]; LMW-DS (pKC) 50 mg/kg s.c.): 902.0 ± 96.4 10^9 cells/L | Reticulocytes ([1]; LMW-DS (pKC) 50 mg/kg s.c.): 230.1 ± 64.6 10^9 cells/L | Basophils ([1]; LMW-DS (pKC) 150 mg/kg s.c.): 0.1 ± 0.0** 10^9 cells/L | Eosinophils ([1]; LMW-DS (pKC) 150 mg/kg s.c.): 0.3 ± 0.1* 10^9 cells/L | Erythrocytes ([1]; LMW-DS (pKC) 150 mg/kg s.c.): 8.3 ± 0.6 10^12 cells/L | Hematocrit ([1]; LMW-DS (pKC) 150 mg/kg s.c.): 0.3 ± 0.0 | Hemoglobin ([1]; LMW-DS (pKC) 150 mg/kg s.c.): 113.3 ± 8.2 | LUC ([1]; LMW-DS (pKC) 150 mg/kg s.c.): 0.1 ± 0.0***/†† 10^9 cells/L | Leukocytes (WBC) ([1]; LMW-DS (pKC) 150 mg/kg s.c.): 15.7 ± 0.4***/††† 10^9 cells/L | MCHC ([1]; LMW-DS (pKC) 150 mg/kg s.c.): 329.3 ± 4.9 g/L | MCV ([1]; LMW-DS (pKC) 150 mg/kg s.c.): 41.7 ± 0.4 fL | MPV ([1]; LMW-DS (pKC) 150 mg/kg s.c.): 7.2 ± 0.5 | Monocytes ([1]; LMW-DS (pKC) 150 mg/kg s.c.): 0.4 ± 0.0*/†† 10^9 cells/L | Neutrophils ([1]; LMW-DS (pKC) 150 mg/kg s.c.): 2.4 ± 0.3** 10^9 cells/L | Platelets ([1]; LMW-DS (pKC) 150 mg/kg s.c.): 893.5 ± 60.8† 10^9 cells/L | Reticulocytes ([1]; LMW-DS (pKC) 150 mg/kg s.c.): 243.7 ± 23.7 10^9 cells/L | Basophils ([1]; LMW-DS (pKC) 500 mg/kg s.c.): 0.1 ± 0.0* 10^9 cells/L | Eosinophils ([1]; LMW-DS (pKC) 500 mg/kg s.c.): 0.4 ± 0.1* 10^9 cells/L | Erythrocytes ([1]; LMW-DS (pKC) 500 mg/kg s.c.): 9.4 ± 0.2††† 10^12 cells/L | Hematocrit ([1]; LMW-DS (pKC) 500 mg/kg s.c.): 0.4 ± 0.0 | Hemoglobin ([1]; LMW-DS (pKC) 500 mg/kg s.c.): 130.3 ± 3.1 | LUC ([1]; LMW-DS (pKC) 500 mg/kg s.c.): 0.3 ± 0.2 10^9 cells/L | Leukocytes (WBC) ([1]; LMW-DS (pKC) 500 mg/kg s.c.): 21.8 ± 2.5***/†† 10^9 cells/L | MCHC ([1]; LMW-DS (pKC) 500 mg/kg s.c.): 327.3 ± 2.5 g/L | MCV ([1]; LMW-DS (pKC) 500 mg/kg s.c.): 42.4 ± 0.3 fL | MPV ([1]; LMW-DS (pKC) 500 mg/kg s.c.): 7.9 ± 0.1 | Monocytes ([1]; LMW-DS (pKC) 500 mg/kg s.c.): 0.5 ± 0.1*/† 10^9 cells/L | Neutrophils ([1]; LMW-DS (pKC) 500 mg/kg s.c.): 2.7 ± 0.3**/† 10^9 cells/L | Platelets ([1]; LMW-DS (pKC) 500 mg/kg s.c.): 893.5 ± 61.0†† 10^9 cells/L | Reticulocytes ([1]; LMW-DS (pKC) 500 mg/kg s.c.): 224.5 ± 35.2 10^9 cells/L | number of platelets (PLT) [2]: did not affect | Lymph ([2]; 7.5 min): 4.6 ± 0.5*** *10^9/L | PLT ([2]; 7.5 min): 1,034 ± 31 *10^9/L | WBC ([2]; 7.5 min): 5.6 ± 0.5* *10^9/L | Lymph ([2]; 15 min): 8.9 ± 0.7*** *10^9/L | PLT ([2]; 15 min): 1,122 ± 58 *10^9/L | WBC ([2]; 15 min): 10.2 ± 0.7*** *10^9/L | Lymph ([2]; 30 min): 12.3 ± 1.1*** *10^9/L | PLT ([2]; 30 min): 978 ± 64 *10^9/L | WBC ([2]; 30 min): 14.6 ± 1.3*** *10^9/L | Lymph ([2]; 1 hr): 8.8 ± 0.5*** *10^9/L | PLT ([2]; 1 hr): 965 ± 23 *10^9/L | WBC ([2]; 1 hr): 11.2 ± 0.6*** *10^9/L | Lymph ([2]; 3 hr): 5.2 ± 0.8** *10^9/L | PLT ([2]; 3 hr): 936 ± 26 *10^9/L | WBC ([2]; 3 hr): 6.8 ± 1.0* *10^9/L | time of highest numbers of WBC and lymphocytes ([2]; mice): around 30 minutes
